According to patent publication US7658937B2, “Anthraquinones and process for the preparation and method of use thereof” (Board of Trustees of Michigan State University, priority 2004, dated 2010):

How the values were obtained:
[1] = tested on: female B. malayi adult worms; assay: Antifilarial activity against female adult worms at 5 ppm (Example 3); assay type: cell-based, Brugia malayi; details: monitored for 20 days
Method: (§1) Live adult male and female B. malayi were obtained from John McCall, University of Georgia, Athens, Ga. (NIH Subcontract). Adult worms were transferred to 6 well plates (3 worms, male or female per well) containing fresh RPMI 1640 culture medium supplemented with L-glutamine and penicillin/streptomycin. Anthraquinones were dissolved separately in 100% DMSO (4mg/ml) and diluted with RPMI media to obtain a final concentration of 5 ppm. Duplicate control groups received 2.5% DMSO or no DMSO. Every 48 h, the medium from each well was removed and replaced with fresh RPMI with or without drug in DMSO. The movement and mortality of the filarial were monitored every 24 h for 20 days. All B. malayi worms in control wells were fully motile throughout the study and the worms treated with anthraquinones were dead.

B. malayi Microfilaria = assay: Antifilarial activity against microfilaria at 5 ppm (Example 3); assay type: cell-based, Brugia malayi
[2] = tested on: adult female filarial (Brugia malayi) worms; assay: Mortality and inhibition of motility of adult female filarial worms at 5 ppm (Example 2); assay type: cell-based; details: for time to 100% mortality: adult female worms
Text: (§2) A collection of 100 adult female Brugia malayi were obtained through an NIH subcontract from Dr. John McCall, University of Georgia in order to test the efficacy of anthraquinones as antifilarial agents. Three worms per well were transferred to 6 well plates containing fresh RPMI 1640 culture medium supplemented with L-glutamine and penicillin/streptomycin. […] Duplicate control groups received 2% DMSO or no DMSO. The medium was removed and replaced with fresh RPMI with or without drug in DMSO every 48 h. The movement and viability of the adult worms were monitored every 24 h till 10 days. The B. malayi worms in control wells were fully motile till the end of 10th day and the worms treated with anthraquinones were dead.
The anthraquinones A, B, D, E, F, J, Q and R, selected randomly, were assayed against adult female filarial (Brugia malayi) worms for mortality and inhibition of motility. […] Other anthraquinones tested gave 100% mortality between 3-10 days (Table 3)

[3] = tested on: male B. malayi adult worms; assay: Antifilarial activity against male adult worms at 5 ppm (Example 3); assay type: cell-based, Brugia malayi; details: monitored for 20 days
Method: as §1

B. Malayi adult worms = assay: Dose response of active anthraquinones against adult worms (50 to 3.12 ppm); assay type: cell-based, Brugia malayi
Text: as §2
Te assay was repeated with anthraquinones B, F, J and R since they killed the worms quickly compared to the other anthraquinones tested.

[4] = tested on: human filarial parasite, B.malayi; assay: Activity of daylily anthraquinone against human filarial parasite; design: species or system Brugia malayi
Schistosoma mansoni = details: naturally occurring anthraquinone from daylily roots; Cichewicz et al. 2002; cited from earlier work
[5] = tested on: adult female and male B. malayi; assay: Morphology of H & E stained sections of killed adult worms (FIGS. 6-9); assay type: cell-based, Brugia malayi; details: killed by 5 ppm, H & E stain
Text: FIG. 6 is a cross-sectional view of H & E stained normal control adult female Brugia malayi. Normal duplicate intrauterine structures contains many well-formed microfilaria larvae that have not yet been released from the uterus. Magnification×400. Calibration mark indicates 100 microns in FIGS. 6-9).
FIG. 7 is a longitudinal sectional view of normal adult male B. malayi. […] Magnification×40.

## O=C1c2ccc(O)c(O)c2C(=O)c2cccc(O)c21 [Anthraquinone H, 1,2,5-Trihydroxy anthraquinone]
[1]
  100% Mortality of female B. malayi: 9 days
B. malayi Microfilaria
  100% Mortality of Microfilaria (Days)*: 3 days
[2]; adult worms
  100% Mortality of B. Malayi: 9 days

## O=C1c2cccc(O)c2C(=O)c2c1ccc(O)c2O [Anthraquinone I, 1,2,8-Trihydroxy anthraquinone]
[1]
  100% Mortality of female B. malayi: 14 days
B. malayi Microfilaria
  100% Mortality of Microfilaria (Days)*: 3 days
[2]; adult worms
  100% Mortality of B. Malayi: 14 days

## COc1cc2c(c(C)c1OC)C(=O)c1c(O)cccc1C2=O [Anthraquinone S, 1-Methyl-2,3-dimethoxy-8-hydroxy anthraquinone]
[1]
  100% Mortality of female B. malayi: 9 days
B. malayi Microfilaria
  100% Mortality of Microfilaria (Days)*: No Mortality
[2]; adult worms
  100% Mortality of B. Malayi: 9 days
[2]; adult worms, at 9 days
  activity: 50%

## CCCSc1ccc2nc(NC(=O)OC)[nH]c2c1 [Albendazole, reference compound]
[1]
  100% Mortality of female B. malayi: 16 days
[3]
  100% Mortality of male B. malayi: 9 days
B. malayi Microfilaria
  100% Mortality of Microfilaria (Days)*: No Mortality
[2]; adult worms
  100% Mortality of B. Malayi: 16 days

## O=C1c2ccccc2C(=O)c2c(O)cc(O)cc21 [Anthraquinone D, 1,3-Dihydroxy anthraquinone]
[1]
  100% Mortality of female B. malayi (Days): No Mortality
B. malayi Microfilaria
  100% Mortality of Microfilaria (Days)*: No Mortality
[2]; adult worms
  100% Mortality of B. malayi (Days): No activity

## O=C1c2cc(O)cc(O)c2C(=O)c2cccc(O)c21 [Anthraquinone L, 1,3,5-Trihydroxy anthraquinone]
[1]
  100% Mortality of female B. malayi: 7 days
B. malayi Microfilaria
  100% Mortality of Microfilaria (Days)*: 3 days
[2]; adult worms
  100% Mortality of B. Malayi: 7 days

## COc1c(C)cc2c(c1O)C(=O)c1ccccc1C2=O [Anthraquinone O, 1-Hydroxy-2-methoxy-3-methyl anthraquinone]
[1]
  100% Mortality of female B. malayi (Days): No Mortality
B. malayi Microfilaria
  100% Mortality of Microfilaria (Days)*: No Mortality
[2]; adult worms
  100% Mortality of B. malayi (Days): No activity

## O=C1c2ccccc2C(=O)c2c1cc(O)c(O)c2O [Anthraquinone F, 1,2,3-Trihydroxy anthraquinone]
[1]
  100% Mortality of female B. malayi: 5 days
B. malayi Microfilaria
  100% Mortality of Microfilaria (Days)*: 3 days
[2]; adult worms
  100% Mortality of B. Malayi: 5 days
B. Malayi adult worms; 3.125 ppm
  100% Mortality of B. Malayi: 5 days
B. Malayi adult worms; 6.25 ppm
  100% Mortality of B. Malayi: 5 days
B. Malayi adult worms; 12.5 ppm
  100% Mortality of B. Malayi: 4 days
B. Malayi adult worms; 25 ppm
  100% Mortality of B. Malayi: 4 days
B. Malayi adult worms; 50 ppm
  100% Mortality of B. Malayi: 2 days

## O=C1c2ccccc2C(=O)c2c(O)ccc(O)c21 [Anthraquinone E, 1,4-Dihydroxy anthraquinone]
[1]
  100% Mortality of female B. malayi: 10 days
B. malayi Microfilaria
  100% Mortality of Microfilaria (Days)*: No Mortality
[2]; adult worms
  100% Mortality of B. Malayi: 10 days

## Cc1c(O)c(O)cc2c1C(=O)c1c(O)cccc1C2=O [Anthraquinone K, 1-Methyl-2,3,8-trihydroxy anthraquinone]
[1]
  100% Mortality of female B. malayi: 3 days
[3]
  100% Mortality of male B. malayi: 5 days
B. malayi Microfilaria
  100% Mortality of Microfilaria (Days)*: 1 days
[2]; adult worms
  100% Mortality of B. Malayi: 3 days

## O=C1c2ccccc2C(=O)c2c1ccc(O)c2O [Anthraquinone A, 1,2-Dihydroxy anthraquinone]
[1]
  100% Mortality of female B. malayi: 5 days
B. malayi Microfilaria
  100% Mortality of Microfilaria (Days)*: 3 days
[2]; adult worms
  100% Mortality of B. Malayi: 11 days

## O=C1c2cc(O)c(O)c(O)c2C(=O)c2cccc(O)c21 [Anthraquinone N, 1,2,3,-5-Tetrahydroxy anthraquinone]
[1]
  100% Mortality of female B. malayi: 5 days
[3]
  100% Mortality of male B. malayi: 6 days
B. malayi Microfilaria
  100% Mortality of Microfilaria (Days)*: 3 days
[2]; adult worms
  100% Mortality of B. Malayi: 5 days

## Cc1cc2c(c(O)c1O)C(=O)c1c(O)cccc1C2=O [Anthraquinone J, 1,2,8-Trihydroxy-3-methyl anthraquinone]
[1]
  100% Mortality of female B. malayi: 5 days
[3]
  100% Mortality of male B. malayi: 5 days
[4]
  activity against human filarial parasite B.malayi: active
Schistosoma mansoni
  activity against Schistosoma mansoni: significant activity
B. malayi Microfilaria
  100% Mortality of Microfilaria (Days)*: 3 days
[2]
  time to 100% mortality: 48 h
[2]; adult worms
  100% Mortality of B. Malayi: 5 days
B. Malayi adult worms; 3.125 ppm
  100% Mortality of B. malayi (Days): No Mortality
B. Malayi adult worms; 6.25 ppm
  100% Mortality of B. Malayi: 5 days
B. Malayi adult worms; 12.5 ppm
  100% Mortality of B. Malayi: 4 days
B. Malayi adult worms; 25 ppm
  100% Mortality of B. Malayi: 3 days
B. Malayi adult worms; 50 ppm
  100% Mortality of B. Malayi: 2 days

## O=C1c2cccc(O)c2C(=O)c2c(O)ccc(O)c21 [Anthraquinone M, 1,4,8-Trihydroxy anthraquinone]
[1]
  100% Mortality of female B. malayi: 9 days
B. malayi Microfilaria
  100% Mortality of Microfilaria (Days)*: 5 days
[2]; adult worms
  100% Mortality of B. Malayi: 9 days

## COc1c(C)cc2c(c1OC)C(=O)c1ccccc1C2=O [Anthraquinone P, 1,2-Dimethoxy-3-methyl anthraquinone]
[1]
  100% Mortality of female B. malayi: 11 days
B. malayi Microfilaria
  100% Mortality of Microfilaria (Days)*: No Morality
[2]; adult worms
  100% Mortality of B. Malayi: 11 days

## Cc1c(O)c(O)cc2c1C(=O)c1ccccc1C2=O [Anthraquinone C, 1-Methyl-2,3-dihydroxy anthraquinone]
[1]
  100% Mortality of female B. malayi: 7 days
B. malayi Microfilaria
  100% Mortality of Microfilaria (Days)*: 3 days
[2]; adult worms
  100% Mortality of B. Malayi: 7 days

## COc1c(C)cc2c(c1O)C(=O)c1c(O)cccc1C2=O [Anthraquinone Q, 1,8-Dihydroxy-2-methoxy-3-methyl anthraquinone]
[1]
  100% Mortality of female B. malayi (Days): No Mortality
B. malayi Microfilaria
  100% Mortality of Microfilaria (Days)*: No Mortality
[2]; adult worms
  100% Mortality of B. malayi (Days): No activity

## O=C1c2cc(O)c(O)cc2C(=O)c2c(O)cccc21 [Anthraquinone G, 2,3,5-Trihydroxy anthraquinone]
[1]
  100% Mortality of female B. malayi: 5 days
B. malayi Microfilaria
  100% Mortality of Microfilaria (Days)*: 3 days
[2]; adult worms
  100% Mortality of B. Malayi: 5 days

## Cc1cc2c(c(O)c1O)C(=O)c1ccccc1C2=O [Anthraquinone B, 1,2-Dihydroxy-3-methyl anthraquinone]
[1]
  100% Mortality of female B. malayi: 5 days
[3]
  100% Mortality of male B. malayi: 6 days
B. malayi Microfilaria
  100% Mortality of Microfilaria (Days)*: 3 days
[2]
  time to 100% mortality: 24 h
[2]; adult worms
  100% Mortality of B. Malayi: 5 days
[5]
  morphology of adult female B. malayi, cross-section: disruption of the stable cuticle and hypodermal regions, along with disorganization of the intrauterine microfilariae
  morphology of adult male B. malayi, longitudinal section: marked loss of cellularity in hypodermal and deeper structures
B. Malayi adult worms; 3.125 ppm
  100% Mortality of B. Malayi: 6 days
B. Malayi adult worms; 6.25 ppm
  100% Mortality of B. Malayi: 5 days
B. Malayi adult worms; 12.5 ppm
  100% Mortality of B. Malayi: 4 days
B. Malayi adult worms; 25 ppm
  100% Mortality of B. Malayi: 3 days
B. Malayi adult worms; 50 ppm
  100% Mortality of B. Malayi: 1 days

## COc1cccc2c1C(=O)c1c(cc(C)c(OC)c1O)C2=O [Anthraquinone R, 1-Hydroxy-2,8-dimethoxy-3-methyl anthraquinone]
[1]
  100% Mortality of female B. malayi: 7 days
B. malayi Microfilaria
  100% Mortality of Microfilaria (Days)*: No Mortality
[2]
  time to 100% mortality: 24 h
[2]; adult worms
  100% Mortality of B. Malayi: 7 days
B. Malayi adult worms; 3.125 ppm
  100% Mortality of B. malayi (Days): No Mortality
B. Malayi adult worms; 6.25 ppm
  100% Mortality of B. Malayi: 8 days
B. Malayi adult worms; 12.5 ppm
  100% Mortality of B. Malayi: 4 days
B. Malayi adult worms; 25 ppm
  100% Mortality of B. Malayi: 2 days
B. Malayi adult worms; 50 ppm
  100% Mortality of B. Malayi: 1 days
